Test results reported in the NIST ThermoML archive (doi:10.1021/je700370z).
“And” between values parts separate entries of the source, which are not always exact repeats. Equal entries are not always repeated.

Settings: Liquid; for viscosity: Falling or rolling sphere viscometry; for mass density: Vibrating tube method

CCCCn1cc[n+](C)c1.F[B-](F)(F)F [1-butyl-3-methylimidazolium tetrafluoroborate]
Settings | mass density | viscosity
273.15 K, 100 kPa | 1219.64 kg/m3 | 543 mPa·s and 542.8 mPa·s
273.15 K, 101.33 kPa | 1219.5 kg/m3 and 1219.64 kg/m3 | 510.8 mPa·s and 511 mPa·s
278.15 K, 101.33 kPa | 1215.79 kg/m3 | 353 mPa·s and 352.9 mPa·s
283.15 K, 100 kPa | 1212.22 kg/m3 | 263.7 mPa·s and 263.8 mPa·s
283.15 K, 101.33 kPa | 1212.07 kg/m3 and 1212.22 kg/m3 | 250.7 mPa·s and 250.6 mPa·s
283.15 K, 800 kPa | 1212.53 kg/m3 | 266.3 mPa·s
283.15 K, 11000 kPa | 1217.32 kg/m3 | 302.2 mPa·s
283.15 K, 24900 kPa | 1223.58 kg/m3 | 359.1 mPa·s
283.15 K, 49600 kPa | 1234.03 kg/m3 | 484.8 mPa·s
283.15 K, 75300 kPa | 1244.07 kg/m3 | 655.9 mPa·s
283.15 K, 100600 kPa | 1253.28 kg/m3 | 875 mPa·s
288.15 K, 101.33 kPa | 1208.38 kg/m3 | 182.4 mPa·s
293.15 K, 100 kPa | 1204.98 kg/m3 | 142.1 mPa·s and 142 mPa·s
293.15 K, 101.33 kPa | 1204.83 kg/m3 and 1204.98 kg/m3 | 135.6 mPa·s and 135.7 mPa·s
298.15 K, 100 kPa | 1201.43 kg/m3 | 108 mPa·s and 108.5 mPa·s and 108.7 mPa·s
298.15 K, 101.33 kPa | 1201.29 kg/m3 and 1201.43 kg/m3 | 103.7 mPa·s [middle of 4 runs]
298.15 K, 500 kPa | 1201.61 kg/m3 | 108.6 mPa·s
298.15 K, 25900 kPa | 1213.76 kg/m3 | 142.6 mPa·s
298.15 K, 50800 kPa | 1224.72 kg/m3 | 185 mPa·s
298.15 K, 75900 kPa | 1234.94 kg/m3 | 239.8 mPa·s
298.15 K, 101100 kPa | 1244.42 kg/m3 | 308.3 mPa·s
298.15 K, 126200 kPa | 1253.22 kg/m3 | 393.9 mPa·s
298.15 K, 150600 kPa | 1261.21 kg/m3 | 499.9 mPa·s
298.15 K, 150700 kPa | 1261.23 kg/m3 | 500.6 mPa·s
298.15 K, 175400 kPa | 1268.78 kg/m3 | 634.7 mPa·s
298.15 K, 200900 kPa | 1276.07 kg/m3 | 808.3 mPa·s
303.15 K, 100 kPa | 1197.88 kg/m3 | 84.6 mPa·s
303.15 K, 101.33 kPa | 1197.75 kg/m3 and 1197.88 kg/m3 | 80.6 mPa·s and 80.7 mPa·s
313.15 K, 100 kPa | 1190.78 kg/m3 | 53.5 mPa·s and 53.6 mPa·s
313.15 K, 101.33 kPa | 1190.68 kg/m3 | 51.3 mPa·s
323.15 K, 100 kPa | 1183.79 kg/m3 | 35.6 mPa·s
323.15 K, 101.33 kPa | 1183.67 kg/m3 and 1183.79 kg/m3 | 34.6 mPa·s
323.15 K, 140 kPa | 1183.79 kg/m3 | 36 mPa·s
323.15 K, 10495 kPa | 1189.26 kg/m3 | 39.3 mPa·s
323.15 K, 25446 kPa | 1196.8 kg/m3 | 44.5 mPa·s
323.15 K, 50493 kPa | 1208.59 kg/m3 | 55.5 mPa·s
323.15 K, 75560 kPa | 1219.46 kg/m3 | 68.1 mPa·s
323.15 K, 100566 kPa | 1229.48 kg/m3 | 83.3 mPa·s
323.15 K, 125543 kPa | 1238.76 kg/m3 | 101.5 mPa·s
323.15 K, 150422 kPa | 1247.36 kg/m3 | 123.2 mPa·s
323.15 K, 175463 kPa | 1255.42 kg/m3 | 149.2 mPa·s
323.15 K, 200347 kPa | 1262.9 kg/m3 | 180.1 mPa·s
323.15 K, 225321 kPa | 1269.94 kg/m3 | 216.9 mPa·s
323.15 K, 250139 kPa | 1276.5 kg/m3 | 260.9 mPa·s
333.15 K, 100 kPa | 1176.81 kg/m3 | 25.2 mPa·s and 25.5 mPa·s
333.15 K, 101.33 kPa | 1176.7 kg/m3 and 1176.81 kg/m3 | 24.5 mPa·s
343.15 K, 100 kPa | 1169.87 kg/m3 | 18.4 mPa·s and 18 mPa·s
343.15 K, 101.33 kPa | 1169.79 kg/m3 | 18.1 mPa·s
348.15 K, 100 kPa | 1166.45 kg/m3 | 16.2 mPa·s and 15.9 mPa·s
348.15 K, 101.33 kPa | 1166.45 kg/m3 | –
348.15 K, 11700 kPa | 1172.95 kg/m3 | 17.4 mPa·s
348.15 K, 25200 kPa | 1180.23 kg/m3 | 19.4 mPa·s
348.15 K, 50700 kPa | 1192.94 kg/m3 | 23.3 mPa·s
348.15 K, 75600 kPa | 1204.4 kg/m3 | 27.8 mPa·s
348.15 K, 100600 kPa | 1214.97 kg/m3 | 33 mPa·s
348.15 K, 125600 kPa | 1224.72 kg/m3 | 38.8 mPa·s
348.15 K, 150600 kPa | 1233.78 kg/m3 | 45.6 mPa·s
348.15 K, 175600 kPa | 1242.2 kg/m3 | 53.4 mPa·s
348.15 K, 200600 kPa | 1250.04 kg/m3 | 62.3 mPa·s
348.15 K, 225500 kPa | 1257.34 kg/m3 | 72.6 mPa·s
348.15 K, 250400 kPa | 1264.17 kg/m3 | 84.6 mPa·s
348.15 K, 275300 kPa | 1270.59 kg/m3 | 98.4 mPa·s
348.15 K, 300000 kPa | 1276.57 kg/m3 | 114 mPa·s
353.15 K, 101.33 kPa | 1162.92 kg/m3 | 13.9 mPa·s and 13.8 mPa·s
360.15 K, 101.33 kPa | 1158.27 kg/m3 | –
362.76 K, 101.33 kPa | 1156.51 kg/m3 | –
363.15 K, 101.33 kPa | 1156.11 kg/m3 | –
363.16 K, 101.33 kPa | 1156.22 kg/m3 | –
